{"source": "patent US20190269705A1", "about": "“METHODS AND MATERIALS FOR TREATING GRAFT VERSUS HOST DISEASE” (Regents of the University of Minnesota, priority 2017, published 2019)", "key": {"Th17 cells [1]": {"system": "Th17 cells", "experiment": "RNA-Seq and gene set enrichment analysis, Th17", "assay_type": "cell-based, mouse", "method": "ATAC-Seq: Crude nuclei pellets were isolated as described elsewhere (see, e.g., Buenrostro et al., 2013 Nat Meth. 10(12):1213-1218) with modifications. Briefly, naïve CD4 T cells were skewed to Th1 and Th17 subsets in vitro with vehicle or in the presence of 500 nM CB839. At Day 5, T cells were re-isolated for CD4+ cells using Miltenyi CD4+ negative selection kit (Cat #: 130-104-454). 1×10^5 cells were removed for nuclei extraction in ATAC-Seq lysing buffer. Cells were exposed to Tn5+ adaptor proteins from Nextera DNA for 30 min at 37° C. and immediately placed on ice. Transposed eluate was amplified via PCR using Nextera DNA preparation kit (Illumina, Cat #: FC-121-1030), NEBNext High-fidelity 2× PCR mix (New England Labs, Cat #: M0541), and multiplexed (Illumina, Cat #: FC-121-1011). Samples were purified using Zymo DNA cleanup kit (Cat #: D4011). QC of samples was run on bioanalyzer before being sent for sequencing. RNA-Seq: Th1 and Th17 cells skewed with or without CB839 were isolated as previously described and total RNA extracted (Qiagen RNEasy Mini kit, Cat #: 74104). RNA was sent to VANTAGE core at Vanderbilt University and sequenced on HiSeq 2500. n=3 for each sample was analyzed. Samples were analyzed using the R program DESeq2. GSEA was performed using MSigDB.\nTh1 and Th17 cells were skewed with or without CB839 over 5 days and total RNA extracted for RNAseq (Cat #: 74104). RNA was sent to VANderbilt Technologies for Advanced GEnomics (VANTAGE) core at Vanderbilt University. Libraries were prepared using 50 ng of total RNA using the NEBNext Ultra RNA Library Kit for Illumina (Cat #E7530) and sequenced on HiSeq3000 at 75 bp paired-end. Each sample was analyzed in triplicate. Sequencing reads were aligned against the Mouse GENCODE genome, Version M14 (Jan. 2017 freeze, GRCm38, Ensembl 89) using the Spliced Transcripts Alignment to a Reference (STAR) software (ref: 26187010 and 23104886). Reads were preprocessed and index using SAMtools (ref: 19505943). Mapped reads were assigned to gene features and quantified using featureCounts (ref: 24227677). Normalization and differential expression was performed using DESeq2 (Love et al., 2014). Skewed lymphocytes with and without CB839 were compared in both Th1 and Th17 groups. […] The top 200 most differentially expressed genes were used for unsupervised hierarchical cluster analysis and visualized using heatmap representations."}, "Th17 cells [2]": {"system": "Th17 cells", "experiment": "Intracellular metabolites by mass spectrometry and pathway analysis, Th17", "assay_type": "cell-based, mouse", "details": "for Hits: Th17 Pathway", "method": "Glucose uptake assays were performed as described elsewhere (see, e.g., Macintyre et al., 2014 Cell Metab. 20(1):61-72). Naïve CD4+ T cells were differentiated into Th1 and Th17 cells, in triplicate, in the presence or absence of CB839 over 5 days and spun down after reisolation using CD4 kit as previously described. Cells were washed 2× in PBS, counted, then rested in 1 mL Kreb's Ringers HEPES (KRH) for 10 minutes. Cells were spun and resuspended to 5×10^5 cells/50 uL KRH for glucose uptake assay. Briefly, cells were […]. Cells incubated for 10 minutes at 37° C. Immediately after incubation, reaction was quenched with 200 μM phloretin (Calbiochem, Cat #: 524488). Cells were spun, washed, and then resuspended in scint fluid for counting on Beckman-Coulter scintillation counter. Pathway analysis of altered metabolites was performed using Metaboanalyst 3.0 (metaboanalyst. ca/faces/home.xhtml).\nDifferentiation: CD4 cells were isolated as previously described and differentiated in subset-specific medium (in triplicate) for 3 days, split at day 3 with new media and IL-2, then allowed to incubate a further 2 days. At day 5, wells were combined, cells washed lx in MACS buffer, re-isolated for CD4 via AutoMACS Pro automated magnetic separator (Miltenyi, Cat #: 130-092-545). Metabolites from Th1 and Th17 cells were extracted as described above.\nDifferentiation. CD4 cells were isolated as previously described and differentiated in subset-specific medium in the presence of vehicle or CB839 (in triplicate) for 3 days, split at day 3 with new media and IL-2, then allowed to incubate a further 2 days. At day 5, wells were combined, cells washed 1× in MACS buffer and re-isolated for CD4 via AutoMACS Pro automated magnetic separator (Miltenyi, Cat #: 130-092-545). Metabolites from Th1 and Th17 cells were extracted and analyzed by LC-HRMS using a Q-Exactive as described previously (Gerriets et al., 2015). Data were range scaled and analyzed using Metaboanalyst 3.5 (Xia and Wishart, 2002) to generate heat maps and for principle component analyses."}, "Treg cells": {"system": "Treg cells", "experiment": "CD4 T cells in Treg skewing conditions, flow cytometry", "details": "5 days, CB839 vs vehicle"}, "[3]": {"details": "Th17 Cells: Decreased Pathways, HALLMARK_CHOLESTEROL_HOMEOSTASIS"}, "[4]": {"details": "Th17 Cells: Decreased Pathways, HALLMARK_E2F_TARGETS"}, "[5]": {"details": "Th17 Cells: Decreased Pathways, HALLMARK_G2M_CHECKPOINT"}, "[6]": {"details": "Th17 Cells: Decreased Pathways, HALLMARK_GLYCOLYSIS"}, "[7]": {"details": "Th17 Cells: Decreased Pathways, HALLMARK_IL2_STAT5_SIGNALING"}, "[8]": {"details": "Th17 Cells: Decreased Pathways, HALLMARK_MTORC1_SIGNALING"}, "[9]": {"details": "Th17 Cells: Decreased Pathways, HALLMARK_MYC_TARGETS_V1"}, "[10]": {"details": "Th17 Cells: Decreased Pathways, HALLMARK_MYC_TARGETS_V2"}, "[11]": {"details": "Th17 Cells: Decreased Pathways, HALLMARK_TNFA_SIGNALING_VIA_NFKB"}, "[12]": {"details": "Th17 Cells: Decreased Pathways, HALLMARK_UNFOLDED_PROTEIN_RESPONSE"}, "[13]": {"details": "Th17 Cells: Increased Pathways, HALLMARK_APICAL_JUNCTION"}, "[14]": {"details": "Th17 Cells: Increased Pathways, HALLMARK_COMPLEMENT"}, "[15]": {"details": "Th17 Cells: Increased Pathways, HALLMARK_EPITHELIAL_MESENCHYMAL_TRANSITION"}, "[16]": {"details": "Th17 Cells: Increased Pathways, HALLMARK_HYPOXIA"}, "[17]": {"details": "Th17 Cells: Increased Pathways, HALLMARK_INFLAMMATORY_RESPONSE"}, "[18]": {"details": "Th17 Cells: Increased Pathways, HALLMARK_INTERFERON_GAMMA_RESPONSE"}, "[19]": {"details": "Th17 Cells: Increased Pathways, HALLMARK_MYOGENESIS"}, "[20]": {"details": "Th17 Cells: Increased Pathways, HALLMARK_P53_PATHWAY"}, "[21]": {"details": "Th17 Cells: Increased Pathways, HALLMARK_TNFA_SIGNALING_VIA_NFKB"}, "[22]": {"details": "Th17 Cells: Increased Pathways, HALLMARK_XENOBIOTIC_METABOLISM"}}, "note": "Entries after “also recorded” stand apart in the source; their conditions may differ.", "data": [{"compound": "O=C(Cc1cccc(OC(F)(F)F)c1)Nc1ccc(CCCCc2nnc(NC(=O)Cc3ccccn3)s2)nn1", "note": "[CB839]", "values": [{"measurement": "compensation by GLS2 at the RNA level", "setting": "Th17 cells [1]; Th17, CB839-treated", "value": "No compensation by GLS2 at the RNA level"}, {"measurement": "direction of the 200 genes with the most altered expression", "setting": "Th17 cells [1]; Th17, CB839 vs vehicle", "value": "more of the most changed genes were downregulated; also recorded: more of these genes were downregulated"}, {"measurement": "gene set enrichment: cell cycle, mTORC1, Myc, IL2 signaling pathways", "setting": "Th17 cells [1]; Th17, CB839 vs vehicle", "value": "downregulated"}, {"measurement": "# Genes in Overlap (k)", "setting": "Th17 cells [1]; [3]", "value": 25}, {"measurement": "k/K", "setting": "Th17 cells [1]; [3]", "value": 0.3378}, {"measurement": "# Genes in Overlap (k)", "setting": "Th17 cells [1]; [4]", "value": 107}, {"measurement": "k/K", "setting": "Th17 cells [1]; [4]", "value": 0.535}, {"measurement": "# Genes in Overlap (k)", "setting": "Th17 cells [1]; [5]", "value": 94}, {"measurement": "k/K", "setting": "Th17 cells [1]; [5]", "value": 0.47}, {"measurement": "# Genes in Overlap (k)", "setting": "Th17 cells [1]; [6]", "value": 31}, {"measurement": "k/K", "setting": "Th17 cells [1]; [6]", "value": 0.155}, {"measurement": "# Genes in Overlap (k)", "setting": "Th17 cells [1]; [7]", "value": 39}, {"measurement": "k/K", "setting": "Th17 cells [1]; [7]", "value": 0.195}, {"measurement": "# Genes in Overlap (k)", "setting": "Th17 cells [1]; [8]", "value": 70}, {"measurement": "k/K", "setting": "Th17 cells [1]; [8]", "value": 0.35}, {"measurement": "# Genes in Overlap (k)", "setting": "Th17 cells [1]; [9]", "value": 75}, {"measurement": "k/K", "setting": "Th17 cells [1]; [9]", "value": 0.375}, {"measurement": "# Genes in Overlap (k)", "setting": "Th17 cells [1]; [10]", "value": 31}, {"measurement": "k/K", "setting": "Th17 cells [1]; [10]", "value": 0.5345}, {"measurement": "# Genes in Overlap (k)", "setting": "Th17 cells [1]; [11]", "value": 34}, {"measurement": "k/K", "setting": "Th17 cells [1]; [11]", "value": 0.17}, {"measurement": "# Genes in Overlap (k)", "setting": "Th17 cells [1]; [12]", "value": 29}, {"measurement": "k/K", "setting": "Th17 cells [1]; [12]", "value": 0.2566}, {"measurement": "# Genes in Overlap (k)", "setting": "Th17 cells [1]; [13]", "value": 19}, {"measurement": "k/K", "setting": "Th17 cells [1]; [13]", "value": 0.095}, {"measurement": "# Genes in Overlap (k)", "setting": "Th17 cells [1]; [14]", "value": 17}, {"measurement": "k/K", "setting": "Th17 cells [1]; [14]", "value": 0.085}, {"measurement": "# Genes in Overlap (k)", "setting": "Th17 cells [1]; [15]", "value": 16}, {"measurement": "k/K", "setting": "Th17 cells [1]; [15]", "value": 0.08}, {"measurement": "# Genes in Overlap (k)", "setting": "Th17 cells [1]; [16]", "value": 15}, {"measurement": "k/K", "setting": "Th17 cells [1]; [16]", "value": 0.075}, {"measurement": "# Genes in Overlap (k)", "setting": "Th17 cells [1]; [17]", "value": 16}, {"measurement": "k/K", "setting": "Th17 cells [1]; [17]", "value": 0.08}, {"measurement": "# Genes in Overlap (k)", "setting": "Th17 cells [1]; [18]", "value": 25}, {"measurement": "k/K", "setting": "Th17 cells [1]; [18]", "value": 0.125}, {"measurement": "# Genes in Overlap (k)", "setting": "Th17 cells [1]; [19]", "value": 18}, {"measurement": "k/K", "setting": "Th17 cells [1]; [19]", "value": 0.09}, {"measurement": "# Genes in Overlap (k)", "setting": "Th17 cells [1]; [20]", "value": 19}, {"measurement": "k/K", "setting": "Th17 cells [1]; [20]", "value": 0.095}, {"measurement": "# Genes in Overlap (k)", "setting": "Th17 cells [1]; [21]", "value": 17}, {"measurement": "k/K", "setting": "Th17 cells [1]; [21]", "value": 0.085}, {"measurement": "# Genes in Overlap (k)", "setting": "Th17 cells [1]; [22]", "value": 17}, {"measurement": "k/K", "setting": "Th17 cells [1]; [22]", "value": 0.085}, {"measurement": "2-hydroxyglutarate (2-HG)", "setting": "Th17 cells [2]; Th17, CB839-treated vs vehicle", "value": "increased in both Th1 and Th17"}, {"measurement": "intracellular α-KG", "setting": "Th17 cells [2]; Th17, CB839-treated vs vehicle", "value": "reduced in CB839-treated Th1, but not Th17 cells"}, {"measurement": "programs of intracellular metabolites", "setting": "Th17 cells [2]; Th17, differentiated with CB839, 5 days", "value": "more pronounced in Th17 than in Th1 cells; also recorded: shifted"}, {"measurement": "glutamate and aspartate levels", "setting": "Th17 cells [2]; Th17, over five days", "value": "rapidly decreased"}, {"measurement": "steady state levels of glutamine", "setting": "Th17 cells [2]; Th17, over five days", "value": "rapidly increased"}, {"measurement": "Hits", "setting": "Th17 cells [2]; Alanine, aspartate and glutamate metabolism", "value": 5}, {"measurement": "Hits", "setting": "Th17 cells [2]; Pentose phosphate pathway", "value": 5}, {"measurement": "Hits", "setting": "Th17 cells [2]; Phenylalanine, tyrosine and tryptophan biosynthesis", "value": 2}, {"measurement": "Hits", "setting": "Th17 cells [2]; Purine metabolism", "value": 8}, {"measurement": "Treg differentiation", "setting": "Treg cells", "value": "unchanged"}]}]}
